This is an account of results in ChEMBL document CHEMBL1157545, “Synthesis and cancer cell cytotoxicity of substituted xanthenes” (Bioorg Med Chem, 2010).

In assay [1] the test system is Nucleic Acid. Description: Binding affinity to DNA assessed as DNA intercalation at 250 uM. Type of assay: nucleic-acid assay.
The subject of the next assay is MCF7. Description: Cytotoxicity against human MCF7 cells after 48 hrs. Particulars: MCF7, 48 h. The format is functional, cell-based.
The test system of assay [2] is Nucleic Acid. Description: Binding affinity to DNA assessed as DNA intercalation at 50 uM. Type of assay: nucleic-acid assay.
The next assay has as its system HeLa. Description: Cytotoxicity against human HeLa cells after 48 hrs. Type of assay: functional, cell-based.
Another assay deals with DU-145. Description: Cytotoxicity against human DU145 cells after 48 hrs. The format is functional, cell-based. Particulars: DU-145, 48 h.
For assay [3], the target named is DNA topoisomerase 2-alpha (Homo sapiens) (UniProt P11388). Description: Inhibition of human DNA topoisomerase 2 at 50 uM by DNA relaxation assay.
Sequence of DNA topoisomerase 2-alpha (Homo sapiens) (P11388 whole entry): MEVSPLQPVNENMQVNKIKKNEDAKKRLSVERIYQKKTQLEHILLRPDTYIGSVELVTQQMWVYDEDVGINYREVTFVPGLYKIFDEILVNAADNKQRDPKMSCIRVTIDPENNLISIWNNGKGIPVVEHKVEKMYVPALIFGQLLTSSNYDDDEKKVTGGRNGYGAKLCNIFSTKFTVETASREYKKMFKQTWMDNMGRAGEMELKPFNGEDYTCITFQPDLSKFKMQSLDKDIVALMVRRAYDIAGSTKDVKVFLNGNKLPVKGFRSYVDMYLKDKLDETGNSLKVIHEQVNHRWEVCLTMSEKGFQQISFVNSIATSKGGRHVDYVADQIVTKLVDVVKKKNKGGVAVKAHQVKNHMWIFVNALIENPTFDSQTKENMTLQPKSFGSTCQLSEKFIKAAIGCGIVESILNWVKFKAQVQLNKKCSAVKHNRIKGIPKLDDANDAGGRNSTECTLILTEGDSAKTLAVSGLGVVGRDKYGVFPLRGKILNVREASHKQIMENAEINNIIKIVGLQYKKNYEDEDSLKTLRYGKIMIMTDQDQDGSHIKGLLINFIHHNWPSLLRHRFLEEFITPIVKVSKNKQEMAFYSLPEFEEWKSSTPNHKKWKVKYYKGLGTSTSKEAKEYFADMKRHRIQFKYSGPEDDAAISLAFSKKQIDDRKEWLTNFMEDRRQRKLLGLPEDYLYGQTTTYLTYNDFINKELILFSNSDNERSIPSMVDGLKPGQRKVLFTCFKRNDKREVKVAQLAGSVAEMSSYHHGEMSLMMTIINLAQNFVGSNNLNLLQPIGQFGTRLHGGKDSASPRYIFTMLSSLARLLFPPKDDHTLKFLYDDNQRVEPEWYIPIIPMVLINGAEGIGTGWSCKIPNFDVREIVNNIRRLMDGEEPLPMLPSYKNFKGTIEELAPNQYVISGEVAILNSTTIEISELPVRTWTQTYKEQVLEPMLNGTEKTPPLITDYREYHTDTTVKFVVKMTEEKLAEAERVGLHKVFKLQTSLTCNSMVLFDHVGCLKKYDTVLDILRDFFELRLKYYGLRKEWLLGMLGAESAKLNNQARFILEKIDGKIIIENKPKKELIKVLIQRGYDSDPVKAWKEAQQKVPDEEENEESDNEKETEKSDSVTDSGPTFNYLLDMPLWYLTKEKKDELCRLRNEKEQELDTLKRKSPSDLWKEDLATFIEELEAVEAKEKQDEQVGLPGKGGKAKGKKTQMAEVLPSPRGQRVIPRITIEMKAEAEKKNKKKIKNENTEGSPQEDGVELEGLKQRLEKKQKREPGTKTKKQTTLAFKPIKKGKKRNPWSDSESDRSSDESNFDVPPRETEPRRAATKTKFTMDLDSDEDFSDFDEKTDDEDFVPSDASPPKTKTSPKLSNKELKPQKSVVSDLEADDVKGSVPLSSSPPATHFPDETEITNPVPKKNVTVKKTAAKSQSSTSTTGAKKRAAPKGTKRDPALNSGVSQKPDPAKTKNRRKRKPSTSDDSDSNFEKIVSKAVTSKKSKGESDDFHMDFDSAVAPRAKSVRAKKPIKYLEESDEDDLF
The target is the same in assay [4]. Description: Inhibition of human DNA topoisomerase 2 at 250 uM by DNA relaxation assay.

Activity calls are given as the source filed them. The calls are words filed in the database; no cut-off is given here.

Take `CCC1(O)c2ccc(C(=O)N3CCN(C)CC3)cc2Oc2ccc(F)cc21` (configuration not stated): the outcome in the assay on Nucleic Acid [1] and in the assay with Nucleic Acid [2] was inactive. Further, the IC50 (in general, the concentration at which inhibition is half-maximal) in the assay with MCF7 was determined as 138 µM; in the assay on HeLa, 127 µM; in the assay with DU-145, 139 µM.

As for `COc1cccc(C2(O)c3ccccc3Oc3cc(C(=O)N4CCOCC4)ccc32)c1` (configuration not stated), the outcome in the assay on Nucleic Acid [1] and in the assay with Nucleic Acid [2] was inactive. Moreover, the IC50 came to 151 µM in the assay with MCF7, 153 µM in the assay with HeLa and 163 µM with DU-145.

On to `CN1CCN(C(=O)c2ccc3c(c2)Oc2ccccc2C3(O)c2ccccc2)CC1` (configuration not stated), for which the result with Nucleic Acid [1] and in the assay on Nucleic Acid [2] was inactive. For the same compound, the IC50 with MCF7 is 169 µM; in the assay on HeLa, 170 µM; in the assay on DU-145, > 300 µM.

As to `O=C(c1ccc2c(c1)Oc1ccccc1C2(O)c1ccccc1)N1CCOCC1` (configuration not stated), the outcome in the assay with Nucleic Acid [1] and with Nucleic Acid [2] was inactive. Moreover, the results for the IC50 with MCF7, in the assay on HeLa and in the assay on DU-145 were 134 µM, 120 µM and 125 µM, respectively.

Consider `CN1CCN(C(=O)c2ccc3c(c2)Oc2ccc(Cl)cc2C3(O)c2ccccc2)CC1` (configuration not stated), for which the result in the assay with Nucleic Acid [1] and in the assay with Nucleic Acid [2] was inactive. Also, the IC50 in the assay with MCF7 stood at 95 µM; in the assay on HeLa, 158 µM; with DU-145, 117 µM.

Consider `COc1cccc(C2(O)c3ccccc3Oc3cc(C(=O)N4CCN(C)CC4)ccc32)c1` (configuration not stated), for which the outcome in the assay with Nucleic Acid [1] and in the assay on Nucleic Acid [2] was inactive. The IC50 in the assay with MCF7 stood at 125 µM; in the assay with HeLa, 111 µM; with DU-145, 139 µM.

For `CCC1(O)c2ccccc2Oc2cc(C(=O)N3CCN(C)CC3)ccc21` (configuration not stated), the result with Nucleic Acid [1] and with Nucleic Acid [2] was inactive. The IC50 in the assay with MCF7 turned out to be 218 µM; with HeLa, 213 µM; in the assay on DU-145 it was 195 µM.

For the compound `COc1cccc(C2(O)c3ccc(C(=O)N4CCN(C)CC4)cc3Oc3ccc(Cl)cc32)c1` (configuration not stated), the result in the assay on Nucleic Acid [1] and with Nucleic Acid [2] was inactive. The IC50 in the assay with MCF7 was 72 µM; with HeLa, 94 µM; in the assay with DU-145, 92 µM.

Consider `C=CC1(O)c2ccc(C(=O)N3CCN(C)CC3)cc2Oc2ccc(F)cc21` (configuration not stated), for which the outcome with Nucleic Acid [1] and in the assay on Nucleic Acid [2] was inactive. For the same compound, the figures for the IC50 with MCF7, with HeLa and with DU-145 were 254 µM, 230 µM and > 300 µM, respectively. The inhibition result in assay [3] and in assay [4] was “inactive” each time.

`C=CC1(O)c2ccc(C(=O)N3CCN(C)CC3)cc2Oc2ccc(Cl)cc21` (configuration not stated): the outcome in the assay with Nucleic Acid [1] and with Nucleic Acid [2] was inactive. Moreover, the IC50 is > 500 µM in the assay with MCF7, 285 µM with HeLa and 208 µM in the assay on DU-145.

As to `OC1(c2ccccc2)c2ccccc2Oc2ccccc21`, the outcome in the assay on Nucleic Acid [1] and with Nucleic Acid [2] was inactive. Besides, the IC50 in the assay with MCF7, in the assay on HeLa and in the assay with DU-145 was > 500 µM throughout.

In the case of `CN1CCN(C(=O)c2ccc3c(c2)Oc2ccccc2C3(C)O)CC1` (configuration not stated), the outcome in the assay on Nucleic Acid [1] and with Nucleic Acid [2] was inactive. Further, the figures for the IC50 with MCF7, with HeLa and with DU-145 were 115 µM, 121 µM and 119 µM, respectively.

As for `COc1cccc(C2(O)c3ccc(C(=O)N4CCN(C)CC4)cc3Oc3ccc(F)cc32)c1` (configuration not stated), the result in the assay with Nucleic Acid [1] and with Nucleic Acid [2] was inactive. The values for the IC50 in the assay on MCF7, in the assay with HeLa and in the assay with DU-145 were 46 µM, 85 µM and 55 µM, respectively. For the same compound, the inhibition result in assay [3] and in assay [4] was “inactive” throughout.

On to `CN1CCN(C(=O)c2ccc3c(c2)Oc2ccc(F)cc2C3(C)O)CC1` (configuration not stated), for which the result in the assay on Nucleic Acid [1] and in the assay on Nucleic Acid [2] was inactive. Besides, the IC50 in the assay on MCF7 was 208 µM; with HeLa it was > 300 µM; in the assay with DU-145, > 300 µM.

In the case of `COc1cccc(C2(O)c3ccccc3Oc3cc(C(=O)N(C)C)ccc32)c1` (configuration not stated), the outcome in the assay with Nucleic Acid [1] and in the assay on Nucleic Acid [2] was inactive. Also, the IC50 in the assay on MCF7 was determined as 50 µM; in the assay with HeLa, 44 µM; with DU-145, 36 µM. For the same compound, the inhibition entry in assay [3] and in assay [4] was “inactive” throughout.

Regarding `COc1cccc(C2(O)c3ccccc3Oc3ccccc32)c1`, the outcome with Nucleic Acid [1] and with Nucleic Acid [2] was inactive. The IC50 with MCF7 turned out to be 82 µM; in the assay with HeLa it was 85 µM; in the assay with DU-145, 59 µM. Also, the inhibition entry in assay [3] and in assay [4] was “inactive” each time.

As for `C=CC1(O)c2ccccc2Oc2cc(C(=O)N3CCN(C)CC3)ccc21` (configuration not stated), the result with Nucleic Acid [1] and in the assay on Nucleic Acid [2] was inactive. Moreover, the IC50 stood at 74 µM in the assay with MCF7, 74 µM in the assay on HeLa and 63 µM with DU-145.

For `CN1CCN(C(=O)c2ccc3c(c2)Oc2ccc(Cl)cc2C3(C)O)CC1` (configuration not stated), the outcome in the assay on Nucleic Acid [1] and with Nucleic Acid [2] was inactive. Moreover, the IC50 was determined as 160 µM with MCF7, 264 µM with HeLa and 241 µM in the assay on DU-145.

As to `CN1CCN(C(=O)c2ccc3c(c2)Oc2ccc(F)cc2C3(O)c2ccccc2)CC1` (configuration not stated), the result with Nucleic Acid [1] and in the assay on Nucleic Acid [2] was inactive. The IC50 in the assay with MCF7 turned out to be 62 µM; with HeLa, 109 µM; in the assay with DU-145, 84 µM. Also, the inhibition result in assay [3] and in assay [4] was “inactive” throughout.

Take `O=c1c2ccccc2oc2ccccc12` [XANTHONE]: the outcome in the assay on Nucleic Acid [1] and in the assay on Nucleic Acid [2] was inactive. Besides, the IC50 with MCF7, in the assay with HeLa and in the assay on DU-145 was > 500 µM in each case.

On to `CCC1(O)c2ccc(C(=O)N3CCN(C)CC3)cc2Oc2ccc(Cl)cc21` (configuration not stated), for which the result in the assay on Nucleic Acid [1] and with Nucleic Acid [2] was inactive. In addition, the IC50 with MCF7 came to 180 µM; in the assay on HeLa it was 153 µM; in the assay with DU-145, 145 µM.

Regarding `CN(C)C(=O)c1ccc2c(c1)Oc1ccccc1C2(O)c1ccccc1` (configuration not stated), the result with Nucleic Acid [1] and in the assay with Nucleic Acid [2] was inactive. In addition, the figures for the half-inhibitory concentration (IC50) with MCF7, in the assay on HeLa and in the assay with DU-145 were 62 µM, 67 µM and 59 µM, respectively. Moreover, the inhibition result in assay [3] and in assay [4] was “inactive” each time.
